According to patent US20230398130A1, “METHODS AND COMPOSITIONS FOR DIFFERENTIATING STEM CELLS” (Massachusetts Institute of Technology, priority 2020, published 2023):
Structures can show the parent of a compound that is named as a salt.

Assays:
ISC-enriched organoids [1] = assay: Primary screen, 384-well 2.5-D organoid differentiation (ENR+CD, 6 days): basal lysozyme secretion (LYZ.NS); format: cell-based, murine; conditions: primary screen; for Dose.FC.LYZ.NS: FC vs plate median
Source text: (§1) High-throughput screening.

ISC-enriched organoids [2] = assay: Primary screen, 384-well 2.5-D organoid differentiation (ENR+CD, 6 days, Target Selective Inhibitor Library, vs whole-plate median): ATP (CellTiter-Glo 3D, CTG); conditions: for Dose.FC.CTG: FC vs plate median; for SSMD.CTG: strictly standardized mean difference
ISC-enriched organoids [3] = assay: Primary screen, 384-well 2.5-D organoid differentiation (ENR+CD, 6 days): carbachol-induced lysozyme secretion (LYZ.S); format: cell-based, murine; conditions: primary screen; for Dose.FC.LYZ.S: ENR+CD 6 days, FC vs plate median
Source text: as §1

[4] = primary screen, dose 0.08 uM, standard z score of FC
[5] = primary screen, dose 0.40 uM, standard z score of FC
[6] = primary screen, dose 2.00 uM, standard z score of FC
[7] = primary screen, dose 10.00 uM, standard z score of FC
[8] = primary screen, dose 0.08 uM, ENR+CD 6 days
[9] = primary screen, dose 0.40 uM, ENR+CD 6 days
[10] = primary screen, dose 2.00 uM, ENR+CD 6 days
[11] = primary screen, dose 10.00 uM, ENR+CD 6 days
[12] = strictly standardized mean difference of replicates, four lines per treatment = four doses (dose not given), column head inferred

Structure (SMILES): CCN(CC)C(=O)c1ccc(C2=CC3(CCNCC3)Oc3cccc(O)c32)cc1 [ADL5859 HCl]
- Z.LYZ.NS (ISC-enriched organoids [1]; dose 0.40 uM, standard z score of FC): 0.163
- Z.CTG (ISC-enriched organoids [2]; [4]): 0.645
- Z.CTG (ISC-enriched organoids [2]; [5]): 0.389
- Z.CTG (ISC-enriched organoids [2]; [6]): 0.695
- Z.CTG (ISC-enriched organoids [2]; [7]): 0.465

Structure (SMILES): COc1cc(CCc2cc(NC(=O)c3ccc(N4CC(C)NC(C)C4)cc3)n[nH]2)cc(OC)c1 (centres unmarked) [AZD4547]
- Dose.FC.LYZ.S (ISC-enriched organoids [3]; dose 0.08 uM): 0.157 log 2 fold change
- Dose.FC.LYZ.S (ISC-enriched organoids [3]; dose 0.40 uM): 0.083 log 2 fold change
- Dose.FC.LYZ.S (ISC-enriched organoids [3]; dose 2.00 uM): 0.074 log 2 fold change
- Dose.FC.LYZ.S (ISC-enriched organoids [3]; dose 10.00 uM): −0.049 log 2 fold change
- Dose.FC.CTG (ISC-enriched organoids [2]; [8]): 0.160 log 2 fold change
- Z.CTG (ISC-enriched organoids [2]; [4]): 0.382
- Dose.FC.CTG (ISC-enriched organoids [2]; [9]): 0.101 log 2 fold change
- Z.CTG (ISC-enriched organoids [2]; [5]): 0.241
- Dose.FC.CTG (ISC-enriched organoids [2]; [10]): −0.010 log 2 fold change
- Z.CTG (ISC-enriched organoids [2]; [6]): −0.024
- Dose.FC.CTG (ISC-enriched organoids [2]; [11]): −0.062 log 2 fold change
- Z.CTG (ISC-enriched organoids [2]; [7]): −0.147

Structure (SMILES): CC(C)(C#N)c1cc(Cn2cncn2)cc(C(C)(C)C#N)c1 [Anastrozole]
- SSMD.LYZ.S (ISC-enriched organoids [3]; [12]): 0.304
- Z.CTG (ISC-enriched organoids [2]; [4]): −0.279
- Z.CTG (ISC-enriched organoids [2]; [5]): 0.057
- Z.CTG (ISC-enriched organoids [2]; [6]): −0.139
- Z.CTG (ISC-enriched organoids [2]; [7]): −1.191

Structure (SMILES): CC(C)C[C@H](NC(=O)[C@H](Cc1ccccc1)NC(=O)c1cnccn1)B(O)O [Bortezomib (PS-341)]
- Dose.FC.LYZ.S (ISC-enriched organoids [3]; dose 0.08 uM): −0.239 log 2 fold change
- Dose.FC.LYZ.S (ISC-enriched organoids [3]; dose 0.40 uM): −0.173 log 2 fold change
- Dose.FC.LYZ.S (ISC-enriched organoids [3]; dose 2.00 uM): −0.249 log 2 fold change
- Dose.FC.LYZ.S (ISC-enriched organoids [3]; dose 10.00 uM): −0.238 log 2 fold change
- Dose.FC.CTG (ISC-enriched organoids [2]; [8]): −1.904 log 2 fold change
- Z.CTG (ISC-enriched organoids [2]; [4]): −4.547
- Dose.FC.CTG (ISC-enriched organoids [2]; [9]): −2.146 log 2 fold change
- Z.CTG (ISC-enriched organoids [2]; [5]): −5.127
- Dose.FC.CTG (ISC-enriched organoids [2]; [10]): −0.915 log 2 fold change
- Z.CTG (ISC-enriched organoids [2]; [6]): −2.185
- Dose.FC.CTG (ISC-enriched organoids [2]; [11]): −1.359 log 2 fold change
- Z.CTG (ISC-enriched organoids [2]; [7]): −3.246

Structure (SMILES): CCOc1nc2cccc(C(=O)O)c2n1Cc1ccc(-c2ccccc2-c2nnn[nH]2)cc1 [Candesartan]
- SSMD.LYZ.NS (ISC-enriched organoids [1]; [12]): −0.474
- Z.CTG (ISC-enriched organoids [2]; Dose 0.40 uM, standard z score of FC): −0.299
- Z.CTG (ISC-enriched organoids [2]; Dose 2.00 uM, standard z score of FC): −0.473
- Z.CTG (ISC-enriched organoids [2]; Dose 10.00 uM, standard z score of FC): −0.604

Structure (SMILES): C=CC(=O)N1CCC[C@@H](n2nc(-c3ccc(Oc4ccccc4)cc3)c3c(N)ncnc32)C1 [Ibrutinib (PCI-32765)]
- Dose.FC.LYZ.NS (ISC-enriched organoids [1]; Dose 0.08 uM): −0.071 log 2 fold change
- Z.LYZ.NS (ISC-enriched organoids [1]; Dose 0.08 uM, standard z score): −0.619
- Dose.FC.LYZ.NS (ISC-enriched organoids [1]; Dose 0.40 uM): −0.141 log 2 fold change
- Z.LYZ.NS (ISC-enriched organoids [1]; Dose 0.40 uM, standard z score): −1.225
- Dose.FC.LYZ.NS (ISC-enriched organoids [1]; Dose 2.00 uM): −0.202 log 2 fold change
- Z.LYZ.NS (ISC-enriched organoids [1]; Dose 2.00 uM, standard z score): −1.763
- Dose.FC.LYZ.NS (ISC-enriched organoids [1]; Dose 10.00 uM): −0.199 log 2 fold change
- Z.LYZ.NS (ISC-enriched organoids [1]; Dose 10.00 uM, standard z score): −1.737
- SSMD.LYZ.NS (ISC-enriched organoids [1]; strictly standardized mean difference, 1st of the 4 dose lines of the treatment (dose not given)): −0.704
- SSMD.LYZ.NS (ISC-enriched organoids [1]; strictly standardized mean difference, 2nd of the 4 dose lines of the treatment (dose not given)): −1.031
- SSMD.LYZ.NS (ISC-enriched organoids [1]; strictly standardized mean difference, 3rd of the 4 dose lines of the treatment (dose not given)): −1.175
- SSMD.LYZ.NS (ISC-enriched organoids [1]; strictly standardized mean difference, 4th of the 4 dose lines of the treatment (dose not given)): −1.325
- Dose.FC.CTG (ISC-enriched organoids [2]; Dose 0.08 uM, primary screen): −0.027 log 2 fold change
- Z.CTG (ISC-enriched organoids [2]; Dose 0.08 uM, primary screen, standard z score): −0.065
- Dose.FC.CTG (ISC-enriched organoids [2]; Dose 0.40 uM, primary screen): −0.466 log 2 fold change
- Z.CTG (ISC-enriched organoids [2]; Dose 0.40 uM, primary screen, standard z score): −1.112
- Dose.FC.CTG (ISC-enriched organoids [2]; Dose 2.00 uM, primary screen): −0.521 log 2 fold change
- Z.CTG (ISC-enriched organoids [2]; Dose 2.00 uM, primary screen, standard z score): −1.244
- Dose.FC.CTG (ISC-enriched organoids [2]; Dose 10.00 uM, primary screen): −0.931 log 2 fold change
- Z.CTG (ISC-enriched organoids [2]; Dose 10.00 uM, primary screen, standard z score): −2.224
- SSMD.CTG (ISC-enriched organoids [2]; primary screen, 1st of the 4 dose lines of the treatment (dose not given)): −0.062
- SSMD.CTG (ISC-enriched organoids [2]; primary screen, 2nd of the 4 dose lines of the treatment (dose not given)): −0.574
- SSMD.CTG (ISC-enriched organoids [2]; primary screen, 3rd of the 4 dose lines of the treatment (dose not given)): −1.005
- SSMD.CTG (ISC-enriched organoids [2]; primary screen, 4th of the 4 dose lines of the treatment (dose not given)): −0.875
